Laboratory results: patent publication US12291519B2, “2-hydroxycycloalkane-1-carbamoyl” (Idorsia Pharmaceuticals Ltd, priority 2019, dated 2025)

Legend:
human Gal-1 (hGal-1) [1] = target: human Gal-1 (hGal-1) (Homo sapiens, UniProt P09382); assay: Competitive binding assay: biotinylated hGal-1 binding to microplate-adsorbed asialofetuin (ASF); settings: Activity on hGal-1; binding of biotinylated hGal-1 to ASF-coated plates; mean values
Summary of the method: (§1)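 Inhibition measured as loss of hGal-1 (biotinylated, 300–1000 ng/mL, wild type or Cys→Ser mutant) binding to adsorbed asialofetuin over 3 h at 4 °C. Bound lectin detected with streptavidin-HRP and ABTS (410 nm, 30–45 min); IC50 values averaged across repeat measurements.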

human Gal-3 (hGal-3) = human Gal-3 (hGal-3) (Homo sapiens (Human), UniProt P17931); assay: Competitive binding assay: biotinylated hGal-3 binding to microplate-adsorbed asialofetuin (ASF); settings: Activity on hGal-3; binding of biotinylated hGal-3 to ASF-coated plates; mean values
Summary of the method: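 Serially diluted compounds competed with biotinylated human Gal-3 for binding to plate-adsorbed asialofetuin over 3 h at 4 °C. Bound Gal-3 was detected with streptavidin-peroxidase (80 ng/mL, 1 h, 4 °C) and ABTS substrate. IC50 values are means of several measurements.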

human Gal-1 (hGal-1) [2] = assay: Competitive binding assay: biotinylated hGal-1 binding to microplate-adsorbed asialofetuin (ASF); settings: Activity on hGal-1; binding of biotinylated hGal-1 to ASF-coated plates; mean values
Summary of the method: as §1

Sequence of human Gal-3 (hGal-3) (P17931 whole entry): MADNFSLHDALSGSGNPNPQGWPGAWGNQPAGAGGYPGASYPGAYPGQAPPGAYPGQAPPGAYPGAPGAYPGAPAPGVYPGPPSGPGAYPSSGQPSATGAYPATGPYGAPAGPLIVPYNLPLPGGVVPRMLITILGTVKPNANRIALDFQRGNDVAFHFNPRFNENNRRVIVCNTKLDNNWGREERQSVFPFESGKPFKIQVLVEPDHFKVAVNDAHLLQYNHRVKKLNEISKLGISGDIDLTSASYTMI
Sequence of human Gal-1 (hGal-1) (P09382 2-135 limits assumed): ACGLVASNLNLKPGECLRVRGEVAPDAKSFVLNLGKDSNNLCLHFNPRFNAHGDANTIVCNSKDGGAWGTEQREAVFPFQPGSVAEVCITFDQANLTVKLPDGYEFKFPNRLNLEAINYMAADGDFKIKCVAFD
Sequence of human Gal-1 (hGal-1) (Homo sapiens, UniProt P09382) (P09382 2-135 limits assumed): as above

Compound: (2R,3R,5R,6R)—N-(3,5-dichlorophenyl)-5-hydroxy-N-(1S,2S)-2-hydroxycyclohexyl-3-(2-hydroxyethoxy)-6-(hydroxymethyl)-4-(4-(3,4,5-trifluorophenyl)-1H-1,2,3-triazol-1-yl)tetrahydro-2H-pyran-2-carboxamide [Example 196]
- IC50 (human Gal-1 (hGal-1) [1]): 161 nM
- IC50 (human Gal-3 (hGal-3)): 21 nM

Compound: CO[C@@H]1[C@@H](n2cc(-c3cc(F)c(C)c(F)c3)nn2)[C@@H](O)[C@@H](CO)O[C@H]1C(=O)N(c1cc(F)cc(Br)c1)[C@H]1CCCC[C@@H]1O [Example 160, (2R,3R,4S,5R,6R)-N-(3-bromo-5-fluorophenyl)-4-(4-(3,5-difluoro-4-methylphenyl)-1H-1,2,3-triazol-1-yl)-5-hydroxy-N-((1S,2S)-2-hydroxycyclohexyl)-6-(hydroxymethyl)-3-methoxytetrahydro-2H-pyran-2-carboxamide]
- IC50 (human Gal-1 (hGal-1) [1]): 1770 nM
- IC50 (human Gal-3 (hGal-3)): 11 nM

Compound: CO[C@@H]1[C@@H](n2cc(-c3cc(F)c(Br)c(F)c3)nn2)[C@@H](O)[C@@H](CO)O[C@H]1C(=O)N(c1ccc(F)c(F)c1)[C@H]1CCCC[C@@H]1O [Example 152, (2R,3R,4S,5R,6R)-4-(4-(4-bromo-3,5-difluorophenyl)-1H-1,2,3-triazol-1-yl)-N-(3,4-difluorophenyl)-5-hydroxy-N-((1S,2S)-2-hydroxycyclohexyl)-6-(hydroxymethyl)-3-methoxytetrahydro-2H-pyran-2-carboxamide]
- IC50 (human Gal-1 (hGal-1) [2]): 3140 nM
- IC50 (human Gal-3 (hGal-3)): 62 nM

Compound: CO[C@@H]1[C@@H](n2cc(-c3ccc(Cl)c(F)c3F)nn2)[C@@H](O)[C@@H](CO)O[C@H]1C(=O)N(c1cc(Cl)cc(C#N)c1)[C@H]1CCCC[C@@H]1O [Example 178, (2R,3R,4S,5R,6R)-4-(4-(4-chloro-2,3-difluorophenyl)-1H-1,2,3-triazol-1-yl)-N-(3-chloro-5-cyanophenyl)-5-hydroxy-N-((1S,2S)-2-hydroxycyclohexyl)-6-(hydroxymethyl)-3-methoxytetrahydro-2H-pyran-2-carboxamide]
- IC50 (human Gal-1 (hGal-1) [2]): 123 nM
- IC50 (human Gal-3 (hGal-3)): 26 nM

Compound: COc1cccc(N(C(=O)[C@@H]2O[C@H](CO)[C@H](O)[C@H](n3cc(-c4cc(F)c(F)c(F)c4)nn3)[C@H]2OC)[C@H]2CCCC[C@@H]2O)c1 [Example 101, (2R,3R,4S,5R,6R)-5-hydroxy-N-((1S,2S)-2-hydroxycyclohexyl)-6-(hydroxymethyl)-3-methoxy-N-(3-methoxyphenyl)-4-(4-(3,4,5-trifluorophenyl)-1H-1,2,3-triazol-1-yl)tetrahydro-2H-pyran-2-carboxamide]
- IC50 (human Gal-1 (hGal-1) [2]): 800 nM
- IC50 (human Gal-3 (hGal-3)): 36 nM

Compound: CO[C@@H]1[C@@H](n2cc(-c3cc(F)cc(Cl)c3)nn2)[C@@H](O)[C@@H](CO)O[C@H]1C(=O)N(c1cccc(Cl)c1)[C@H]1CCCC[C@@H]1O [Example 143, (2R,3R,4S,5R,6R)-4-(4-(3-chloro-5-fluorophenyl)-1H-1,2,3-triazol-1-yl)-N-(3-chlorophenyl)-5-hydroxy-N-((1S,2S)-2-hydroxycyclohexyl)-6-(hydroxymethyl)-3-methoxytetrahydro-2H-pyran-2-carboxamide]
- IC50 (human Gal-1 (hGal-1) [2]): 1410 nM
- IC50 (human Gal-3 (hGal-3)): 24 nM

Compound: CO[C@@H]1[C@@H](n2cc(-c3cc(F)c(Cl)c(Cl)c3)nn2)[C@@H](O)[C@@H](CO)O[C@H]1C(=O)N(c1cc(Cl)cc(Cl)c1)[C@H]1CCCC[C@@H]1O [Example 166, (2R,3R,4S,5R,6R)-4-(4-(3,4-dichloro-5-fluorophenyl)-1H-1,2,3-triazol-1-yl)-N-(3,5-dichlorophenyl)-5-hydroxy-N-((1S,2S)-2-hydroxycyclohexyl)-6-(hydroxymethyl)-3-methoxytetrahydro-2H-pyran-2-carboxamide]
- IC50 (human Gal-1 (hGal-1) [2]): 1340 nM
- IC50 (human Gal-3 (hGal-3)): 22 nM

Compound: CO[C@@H]1[C@@H](n2cc(-c3cc(F)c(C)c(F)c3)nn2)[C@@H](O)[C@@H](CO)O[C@H]1C(=O)N(c1cc(Cl)cc(Cl)c1)[C@H]1CCCC[C@@H]1O [Example 158, (2R,3R,4S,5R,6R)-N-(3,5-dichlorophenyl)-4-(4-(3,5-difluoro-4-methylphenyl)-1H-1,2,3-triazol-1-yl)-5-hydroxy-N-((1S,2S)-2-hydroxycyclohexyl)-6-(hydroxymethyl)-3-methoxytetrahydro-2H-pyran-2-carboxamide]
- IC50 (human Gal-1 (hGal-1) [2]): 798 nM
- IC50 (human Gal-3 (hGal-3)): 15 nM

Compound: CO[C@@H]1[C@@H](n2cc(-c3ccc(Br)c(F)c3F)nn2)[C@@H](O)[C@@H](CO)O[C@H]1C(=O)N(c1cc(Cl)cc(C#N)c1)[C@H]1CCCC[C@@H]1O [Example 175, (2R,3R,4S,5R,6R)-4-(4-(4-bromo-2,3-difluorophenyl)-1H-1,2,3-triazol-1-yl)-N-(3-chloro-5-cyanophenyl)-5-hydroxy-N-((1S,2S)-2-hydroxycyclohexyl)-6-(hydroxymethyl)-3-methoxytetrahydro-2H-pyran-2-carboxamide]
- IC50 (human Gal-1 (hGal-1) [2]): 386 nM
- IC50 (human Gal-3 (hGal-3)): 13 nM

Compound: CO[C@@H]1[C@@H](n2cc(-c3cc(F)c(F)c(F)c3)nn2)[C@@H](O)[C@@H](CO)O[C@H]1C(=O)N(c1ccc2nc(C)[nH]c2c1)[C@H]1CCCC[C@@H]1O [Example 123, (2R,3R,4S,5R,6R)-5-hydroxy-N-((1S,2S)-2-hydroxycyclohexyl)-6-(hydroxymethyl)-3-methoxy-N-(2-methyl-1H-benzo[d]imidazol-6-yl)-4-(4-(3,4,5-trifluorophenyl)-1H-1,2,3-triazol-1-yl)tetrahydro-2H-pyran-2-carboxamide]
- IC50 (human Gal-1 (hGal-1) [2]): 5880 nM
- IC50 (human Gal-3 (hGal-3)): 85 nM

Compound: CO[C@@H]1[C@@H](n2cc(-c3cc(F)c(F)c(F)c3)nn2)[C@@H](O)[C@@H](CO)O[C@H]1C(=O)N(c1cc(F)cc(Cl)c1)[C@H]1CCCC[C@@H]1O [Example 121, (2R,3R,4S,5R,6R)-N-(3-chloro-5-fluorophenyl)-5-hydroxy-N-((1S,2S)-2-hydroxycyclohexyl)-6-(hydroxymethyl)-3-methoxy-4-(4-(3,4,5-trifluorophenyl)-1H-1,2,3-triazol-1-yl)tetrahydro-2H-pyran-2-carboxamide]
- IC50 (human Gal-1 (hGal-1) [2]): 449 nM
- IC50 (human Gal-3 (hGal-3)): 19 nM

Compound: COc1cc(F)c(F)cc1-c1cn([C@H]2[C@@H](O)[C@@H](CO)O[C@@H](C(=O)N(c3cc(Cl)cc(C#N)c3)[C@H]3CCCC[C@@H]3O)[C@@H]2OC)nn1 [Example 174, (2R,3R,4S,5R,6R)-N-(3-chloro-5-cyanophenyl)-4-(4-(4,5-difluoro-2-methoxyphenyl)-1H-1,2,3-triazol-1-yl)-5-hydroxy-N-((1S,2S)-2-hydroxycyclohexyl)-6-(hydroxymethyl)-3-methoxytetrahydro-2H-pyran-2-carboxamide]
- IC50 (human Gal-1 (hGal-1) [2]): 750 nM
- IC50 (human Gal-3 (hGal-3)): 40 nM

Compound: CO[C@@H]1[C@@H](n2cc(-c3cc(F)c(F)c(F)c3)nn2)[C@@H](O)[C@@H](CO)O[C@H]1C(=O)N(c1ccc(F)c(Cl)c1)[C@H]1CCCC[C@@H]1O [Example 90, (2R,3R,4S,5R,6R)-N-(3-chloro-4-fluorophenyl)-5-hydroxy-N-((1S,2S)-2-hydroxycyclohexyl)-6-(hydroxymethyl)-3-methoxy-4-(4-(3,4,5-trifluorophenyl)-1H-1,2,3-triazol-1-yl)tetrahydro-2H-pyran-2-carboxamide]
- IC50 (human Gal-1 (hGal-1) [2]): 358 nM
- IC50 (human Gal-3 (hGal-3)): 26 nM

Compound: CO[C@@H]1[C@@H](n2cc(-c3cc(F)c(Br)c(F)c3)nn2)[C@@H](O)[C@@H](CO)O[C@H]1C(=O)N(c1cc(Cl)cc(Cl)c1)[C@H]1CCCC[C@@H]1O [Example 151, (2R,3R,4S,5R,6R)-4-(4-(4-bromo-3,5-difluorophenyl)-1H-1,2,3-triazol-1-yl)-N-(3,5-dichlorophenyl)-5-hydroxy-N-((1S,2S)-2-hydroxycyclohexyl)-6-(hydroxymethyl)-3-methoxytetrahydro-2H-pyran-2-carboxamide]
- IC50 (human Gal-1 (hGal-1) [2]): 1130 nM
- IC50 (human Gal-3 (hGal-3)): 37 nM
